Legend:
[1] = Clearance in rat after iv administration; type: ADME, organism-based; details: in vivo
[2] = Volume of distribution at steady state in rat after iv administration; type: ADME, organism-based; details: in vivo
[3] = Clearance in dog after iv administration; type: ADME, organism-based, Canis lupus familiaris; details: in vivo
[4] = Volume of distribution at steady state in dog after iv administration; type: ADME, organism-based, Canis lupus familiaris; details: in vivo, read-out: Vdss
[5] = Clearance in monkey after iv administration; type: ADME, organism-based; details: macaca, in vivo
[6] = Volume of distribution at steady state in monkey after iv administration; type: ADME, organism-based; details: macaca, in vivo, read-out: Vdss
[7] = Clearance in human after iv administration; type: ADME, organism-based; details: in vivo
[8] = Volume of distribution at steady state in human after iv administration; type: ADME, organism-based; details: in vivo, read-out: Vdss

Structure (SMILES)	clearance [1]	Vdss [2]	clearance [3]	Vd [4]	clearance [5]	Vd [6]	clearance [7]	Vd [8]
O=P1(N(CCCl)CCCl)NCCCO1 (stereo unspecified) [CYCLOPHOSPHAMIDE ANHYDROUS]	12 mL/min/kg	0.8 L/kg	20 mL/min/kg	0.7 L/kg	20 mL/min/kg	1.3 L/kg	2.6 mL/min/kg	0.7 L/kg
O=P(O)(O)C(Sc1ccc(Cl)cc1)P(=O)(O)O [TILUDRONIC ACID]	3.3 mL/min/kg	15 L/kg	0.5 mL/min/kg	3 L/kg	0.83 mL/min/kg	7 L/kg	0.3 mL/min/kg	1 L/kg
O=[N+]([O-])O[C@@H]1CO[C@H]2[C@@H]1OC[C@@H]2O [ISOSORBIDE MONONITRATE]	2.5 mL/min/kg	0.97 L/kg	6.9 mL/min/kg	0.8 L/kg	11 mL/min/kg	0.5 L/kg	1.7 mL/min/kg	0.6 L/kg
Cc1cccc(C)c1NC(=O)NCCCNC(C)C	82 mL/min/kg	3.2 L/kg	13 mL/min/kg	1.2 L/kg	32 mL/min/kg	3.8 L/kg	7.2 mL/min/kg	1.4 L/kg
CN(C)C(=O)CCSC(SCCC(=O)O)c1cccc(/C=C/c2ccc3ccc(Cl)cc3n2)c1 (stereo unspecified) [MK-571]	37 mL/min/kg	0.59 L/kg	4 mL/min/kg	0.23 L/kg	1.9 mL/min/kg	0.32 L/kg	0.92 mL/min/kg	0.09 L/kg
Cc1c(C)c2c(c(C)c1O)CCC(C)(COc1ccc(CC3SC(=O)NC3=O)cc1)O2 (stereo unspecified) [TROGLITAZONE]	22 mL/min/kg	1 L/kg	6.6 mL/min/kg	0.77 L/kg	8.3 mL/min/kg	0.71 L/kg	3.5 mL/min/kg	0.71 L/kg
Cc1cc(=O)n(-c2ccccc2)n1C [ANTIPYRINE]	10 mL/min/kg	0.97 L/kg	5.5 mL/min/kg	0.62 L/kg	4.4 mL/min/kg	0.74 L/kg	0.66 mL/min/kg	0.87 L/kg

From ChEMBL document CHEMBL1614629, “Extrapolation of human pharmacokinetic parameters from rat, dog, and monkey data: Molecular properties associated with extrapolative success or failure” (J Pharm Sci, 2005)
